Experimental data taken from patent US20240238199A1, “STABLE LIQUID PHARMACEUTICAL COMPOSITIONS HAVING HIGH DRUG LOADINGS OF MEDIUM CHAIN TRIGLYCERIDES AND METHODS RELATED THERETO” (CERECIN INC., priority 2021, published 2024).

What was measured:
[1] = Gamma irradiation: physiochemical testing pre & post treatment; type: physicochemical
Source text: Gamma irradiation is a commonly accepted method of sterilizing componentry and reducing bio load in natural materials. Exemplary formulations were irradiated at various dosages and then assessed for the impact of irradiation on product performance.

[2] = Emulsion physical stability (visual / overall assessment); type: physicochemical; details: at pH7
Source text: As described herein, the pharmaceutical compositions of the disclosure may form a stable liquid emulsion at ambient conditions. An emulsion refers to a composition which, when diluted with water or other aqueous medium and gently mixed, yields a stable oil/water emulsion with a mean particle size of less than about 1 μm, but greater than about 100 nm, (i.e., 0.1-1 μm) and which is generally polydisperse. Such an emulsion is stable, meaning there is no visibly detectable phase separation and that there is no visibly detectable crystallization.
Equal mix of Phospholipon 90 G, Kolliphor RH40 and Capmul PG-8 was also very stable. Particle size evolution of Phospholipon 90G, Kolliphor RH40, Capmul PG-8 emulsions prepared via Ultra Turrax emulsification are shown in FIG. 4, and particle size evolution of 10 Phospholipon 90G, Kolliphor RH40, Capmul PG-8 emulsions: prepared via Silverson & High Pressure Homogeniser emulsification are shown in FIG. 5. Visual appearance of Phospholipon 90G, Kolliphor RH40, Capmul PG-8 emulsions under a 1 month stability study are shown in FIG. 6.

Appearance: Complies/fails ([1]; gamma irradiation 10 kGy)	Assay: Complies/fails ([1]; gamma irradiation 10 kGy)	Related substances: Complies/fails ([1]; gamma irradiation 10 kGy)	Related substances: result after treatment ([1]; gamma irradiation 10 kGy)	Appearance: Complies/fails ([1]; gamma irradiation 15 kGy)	Assay: Complies/fails ([1]; gamma irradiation 15 kGy)	Related substances: Complies/fails ([1]; gamma irradiation 15 kGy)	Related substances: result after treatment ([1]; gamma irradiation 15 kGy)	Appearance: Complies/fails ([1]; gamma irradiation 25 kGy)	Assay: Complies/fails ([1]; gamma irradiation 25 kGy)	Related substances: Complies/fails ([1]; gamma irradiation 25 kGy)	Related substances: result after treatment ([1]; gamma irradiation 25 kGy)	Structure (SMILES)	effect on emulsion stability [2]
Complies	Complies	Complies*	profile changes	Complies	Complies	Complies*	profile changes	Complies	Complies	Complies*	profile changes	CCCCCCCC(=O)OCC(COC(=O)CCCCCCC)OC(=O)CCCCCCC [Tricaprylin]	–
–	–	–	–	–	–	–	–	–	–	–	–	CCCCCCCC/C=C\CCCCCCCC(=O)[O-].[Na+] [Sodium oleate]	slight destabilizing effect
